One block for each substance: values may come before it. No end group written: not given here.
Key:
AC133+ cells = assay: Short-term ex-vivo AC133+ cell expansion culture with HXP peptide, trypan blue cell count; assay type: cell-based, human; conditions: HXP peptide withdrawn at 7 days, Hox B4 protein 20 μg/ml added
Procedure: Umbilical Cord Blood (UCB) specimens were collected from full-term deliveries scheduled for elective caesarian sections following hospital ethical regulations.
Samples were diluted 1 in 4 in PBS supplemented with a citrate-based anti-coagulant (0.6% ACD-A, Baxter, France) and Bovine Serum Albumin (0.5% fraction V, Sigma Aldrich, UK) at pH=7.4 and referenced as “ACD-A buffer”. Diluted UCB was carefully overlaid in a 1:4 ratio onto a research grade Ficoll-Paque solution (d:1.077 g/cm^3, Pharmacia Biotech, Sweden) prior to Centrifugation (400 g, 30 minutes, 22° C.). The mononuclear cells (MNC) layer was extracted, washed twice in ACD-A Buffer, pelleted (400 g, 10 minutes) before resuspending in ACD-A buffer and cell aliquots taken for cell viability/enumeration using trypan blue (Sigma Aldrich).
AC133+ cells were obtained from MNC after immunomagnetic separation using the AC133 mini-MACS selection kit (Miltenyi Biotec, Germany): labelling volume 500 μl/10^8 cells in ACD-A buffer containing Fc Receptor-blocking reagent (100 μl, 5 min incubation, 4° C.) before adding colloidal super-paramagnetic MACS MicroBeads conjugated to monoclonal mouse anti-human AC133/1 antibody (100 μl IgG1 isotype, 25 min incubation, 4° C.). Cells were then washed (5 ml ACD-A buffer, 400 g, 10 min, 4° C.) before resuspended cells in 500 μl ACD-A buffer were applied to a chilled MACS positive selection column (MS+/RS+) on a magnet. The column was rinsed with cool ACD-A buffer (4×500 μl) and the AC133− cell population retained at 4° C. After magnet removal AC133+ cells were eluted with 1 ml of cold ACD-A buffer. The AC133+ cell fraction was reapplied to a new column, prior to cell enumeration and viability assays.
AC133+ cells were seeded in duplicate in liquid culture system at 2-4×10^4 cells/ml. […] Cultured cells were then counted at various time points using trypan blue exclusion method described above.

[1] = tested on: PBX1, 2 and 3 association with HOX proteins; assay: Cross-linking and Western blot of PBX proteins in KG1a cells (Example 2); assay type: cell-based, human; conditions: 24 hours, 1 μM peptide, EDC cross-linking
Procedure: HXP and control peptides were as described in Example 1. KG1a cells were grown as described in Example 1. KG1a cells were cultured for 24 hours without treatment, or in the presence of 1 μM HXP peptide or control peptide. The cells were harvested and lysed. One aliquot of the cells was subject to cross-linking. Frozen cells were lysed using standard techniques and […] of lysate was incubated for 30 minutes at room temperature in 4 mM 1-ethyl-3-[3-(dimethyl-amino)propyl]carbodimide (EDC), 4 mM sulpho-NHS, 20 mM HEPES (pH 7.5), 5 mM MgCl2, and 0.03% (w/v) […] to cross-link non-covalently associated proteins. The reaction was stopped by the addition of ammonium acetate to a final concentration of 50 mM. The other aliquot was frozen without cross-linking.
Proteins were extracted from the cells of both aliquots by standard techniques and separated by gel electrophoresis. The gels were probed by Western blot with an antibody raised against PBX1, 2 and 3 (sc-888, Santa Cruz Inc. USA) or an anti-beta actin antibody (sc-1615, Santa Cruz Inc. USA).

malignant cell lines = assay: Proliferation of malignant cell lines over seven days in culture; assay type: cell-based, human; set-up: effect of increased dose on proliferation of malignant cell lines: dose or concentration left out as unconfirmed; conditions: ten fold increase in dose
Procedure: A number of cell lines representing different malignancies were grown in culture for seven days, and HXP peptide or the control peptide CXP were added to a final concentration of 20 μg/ml on day 3. The bars represent the fold increase of each cell line over the seven days; the empty, dashed bars indicate the CXP peptide treated cells, whilst the solid bars indicate the addition of HXP peptide. Error bars represent the standard error the mean, and n is the number of experiments performed. The cell lines used were: AML—KG1a; Bladder—HT; Breast—SKBR3; Cervical—HeLa; Colon—Colo41; Gastric—MKN-45; Large cell lung cancer—MES; Melanoma—DX3; Ovarian—1847; Pancreatic—Panc-Tu1; Prostate—LNCAP; Renal—HT1376; Small cell lung cancer—NCI-h510A. The change in the expression of the HOX genes expressed by each cell line was assessed by RT-PCR on RNA extracted from the cells at the end of seven days. ‘HOX gene inactivated’ means that the level of expression of each of the listed HOX genes was at least five fold lower in the HXP peptide treated cells compared to the control. *Analysis not yet complete.
A number of cell lines representing different malignancies were grown in culture for seven days, and HXP peptide or the control peptide CXP were added to a final concentration of 200 μg/ml on day 3. The bars represent the fold increase of each cell line over the seven days; the empty, dashed bars indicate the CXP peptide treated cells, whilst the solid bars indicate the addition of HXP peptide. Error bars represent the standard error the mean, and n is the number of experiments performed. The cell lines used were: Bladder—HT; Cervical—HeLa; Melenoma—DX3; Pancreatic—Panc-Tu1.
Solid tumour cell lines (Cancer Research UK) were seeded at 4×10^4 cells/ml, in a liquid culture system made of appropriate medium (see table, Sigma-Aldrich, UK) supplemented with 10% FCS (Sigma Aldrich) and penstrep (1% Sigma). All cell lines were grown with HXP peptide (as in Example 3, 20 μg/ml or 200 μg/ml) or control peptide CXP (20 μg/ml or 200 μg/ml).
KG1a, KG1, HL60 and U937 cell lines (EACC, UK) were seeded at 5×10^4 cells/ml, in a liquid culture system made of RPMI-1640 medium (Life Technologies, UK) supplemented with 10% FCS (Sigma Aldrich) and gentamicin (50 μg/ml Life Technologies) in triplicates. All cell lines were grown with HXP peptide peptide (20 μg/ml) or control peptide (20 μg/ml).
Cell lines were cultured for various time points at 37° C., 5% CO2 in humidified atmosphere and enumerated at various time points.

PBX/HOX dimers = assay: Western blotting of PBX and PBX/HOX dimers in CD133+ cells (Example 3); assay type: cell-based, human; conditions: 20 μg/ml, EDC cross-linking
Procedure: CD133+ cells (another name for AC133+ cells) were seeded in duplicate at 4×10^4 cells/ml in IMDM (Life Technologies), 10% FCS (Sigma Aldrich) and gentamycin (50 μg/ml Life Technologies) and Thrombopoietin (TPO) 10 ng/ml, Flt3-Ligand (FL) 50 ng/ml & c-KitL (K) 20 ng/ml), all obtained from R and D systems Ltd., UK. (Forraz et al., 2002). The HXP peptide (N-term: WYPWMKKHHRQIKIWFQNRRMKWKK: C-term; Eurogentec, Belgium) and control CXP peptide (N-term: WCCLADRHGRQIKIWFQNRRMKWKK: C-term; Eurogentec, Belgium) were added to culture medium at a concentration of 20 μg/ml. To withdraw peptides from culture, cells were washed twice in IMDM or RPMI and reseeded at prewash cell densities. Primary cells were cultured for 3 weeks at 37° C., 5% CO2 in humidified atmosphere and enumerated by a […] exclusion method with a heamocytometer.
Protein was extracted from HXP-treated or CXP-treated CD133+ cells (20 μg/ml). C-20 antibody that recognises all three human PBX gene proteins (sc-888, Santa Cruz Biotechnology Inc., USA; Monica et al., 1991). Protein cross linking was performed with 2 mM 1-ethyl-3-[3-(dimethylamino)propyl]carbodiimide (EDC) (Pierce Biotechnology, USA), in cell lysates diluted 1:10 in conjugation buffer (0.1M 2-[N-morpholino]ethane sulphonic acid, pH 5). […]

[2] = Stability in human serum at 37° C., denaturing PAGE and silver stain
Procedure: 30 μg of HXP(10) or HXP peptide were incubated in 50 μl of human serum at 37° C. for the times shown. Samples were run on a denaturing PAGE and silver stained.

[3] = comparison with other peptide based pharmaceuticals; cited from earlier work

Substance: HOX B4: recombinant full length Xenopus laevis sequence
AC133+ cell proliferation after HXP peptide withdrawal and co-stimulation with HOX B4 (AC133+ cells): reverted to near control levels

Substance: WAPWEDDHHRQIKIWFQNRRMKWKK (Control Peptide) [reference compound]
association of PBX proteins with other proteins (HOX proteins) [1]: associated with-other proteins
effect of increased dose on proliferation of malignant cell lines (malignant cell lines): no significant affect on proliferation

Substance: WCCLADRHGRQIKIWFQNRRMKWKK (WCCLADRHGRQIKIWFQNRRMKWKK) [CXP, reference compound]
binding of PBX to other proteins / formation of PBX/HOX dimers (PBX/HOX dimers): not

half-life [2]: ~4 h
Substance: WYPWMKKHHR [HXP4(10), WYPWMKKHHR]

Substance: low molecular weight heparin
serum half life [3]: thirty

Reference: patent publication US7728105B2, “Peptides impairing PBX dependent gene regulation” (St. George's Hospital Medical School, priority 2002, dated 2010)
